Where two headings read alike, the source gives them in different places.
Assays:
[1] = tested on: Puccinia recondita f. sp. tritici; experiment: Test I: wheat leaf rust, preventive spray on wheat seedlings, visual disease rating; conditions: for Test I rating (% disease control): wheat leaf rust, 100 = 100% disease control
Botrytis cinerea = experiment: Test B: tomato Botrytis, preventive spray on tomato seedlings, visual disease rating; conditions: for Test B rating (% disease control): tomato Botrytis, 100 = 100% disease control
Phytophthora infestans = assay type: in vivo; conditions: tomato late blight, 100 = 100% disease control
Alternaria solani = experiment: Test C: tomato early blight, preventive spray on tomato seedlings, visual disease rating; conditions: for Test C rating (% disease control): tomato early blight, 100 = 100% disease control
Rhizoctonia solani = experiment: Test E: turf brown patch, preventive spray on creeping bent grass (Agrostis sp.) seedlings, disease rating; assay type: in vivo; conditions: 100 = 100% disease control
Description: A dash (-) indicates no test results.

Plasmopara viticola = experiment: Test A: grape downy mildew, curative spray on inoculated grape seedlings, visual disease rating; assay type: in vivo; conditions: 100 = 100% disease control, 0 = no control relative to controls
Description: Upon removal, visual disease ratings were made. […] A dash (-) indicates no test results.

[2] = tested on: Erysiphe graminis f sp. tritici; experiment: Test J: wheat powdery mildew, preventive spray on wheat seedlings, visual disease rating; conditions: for Test J rating (% disease control): wheat powdery mildew, 100 = 100% disease control
Septoria tritici = experiment: Test G: wheat leaf blotch, preventive spray on wheat seedlings, visual disease rating; conditions: for Test G rating (% disease control): wheat leaf blotch, preventive spray, 100 = 100% disease control, 0 = no control
Septoria nodorum = experiment: Test F: Septoria glume blotch, preventive spray on wheat seedlings, visual disease rating; conditions: for Test F rating (% disease control): 100 = 100% disease control
[3] = preventive spray, 0 = no control
[4] = Septoria glume blotch on wheat, preventive spray, 0 = no control
[5] = preventive, 0 = no control relative to controls
[6] = 0 = no control relative to controls
[7] = Septoria glume blotch, 0 = no control relative to controls

Structure (SMILES) | Test D rating (% disease control) (Phytophthora infestans; [3]) [%] | Test E rating (% disease control) (Rhizoctonia solani; [3]) [%] | Test A rating (% disease control) (Plasmopara viticola; curative spray) [%] | Test I rating (% disease control) [1, 3] [%] | Test B rating (% disease control) (Botrytis cinerea; [3]) [%] | Test C rating (% disease control) (Alternaria solani; [3]) [%] | Test J rating (% disease control) [2, 3] [%] | Test G rating (% disease control) (Septoria tritici) [%] | Test F rating (% disease control) (Septoria nodorum; [4]) [%] | also measured
Cc1nn(C)c(Nc2cccc(Cl)c2)c1-c1ccc(F)cc1F [Compound 1, N-(3-Chlorophenyl)-4-(2,4-difluorophenyl)-1,3-dimethyl-1H-pyrazol-5-amine] | 0 | 47 | 0 | – | – | – | – | – | – | pest or weed control at 200 µg/mL ([1]; 192 h, read-out: Test I rating (% disease control)): 0%; pest or weed control at 200 µg/mL (Botrytis cinerea; Botrytis cinerea, in Solanum lycopersicum, 120 h, read-out: Test B rating (% disease control)): 99%; pest or weed control at 200 µg/mL (Alternaria solani; Alternaria solani, in Solanum lycopersicum, 168 h, read-out: Test C rating (% disease control)): 0%; pest or weed control at 200 µg/mL ([2]; Blumeria graminis, in Triticum aestivum, 192 h, read-out: Test J rating (% disease control)): 98%; pest or weed control at 200 µg/mL (Septoria tritici; Zymoseptoria tritici, in Triticum aestivum, 504 h, read-out: Test G rating (% disease control)): 99%; pest or weed control at 200 µg/mL (Septoria nodorum; Parastagonospora nodorum, in Triticum aestivum, 192 h, read-out: Test F rating (% disease control)): 0%
COc1cc(Nc2c(-c3ccc(F)cc3F)c(C)nn2C)cc(OC)c1 [compound 2] | 0 | 0 | 8 | 0 | 1 | 0 | 0 | 0 | 0 | –
Cc1nn(C)c(N(C)c2cccc(Cl)c2)c1-c1ccc(F)cc1F [compound 3] | 9 | 0 | 6 | 0 | 0 | 25 | 99 | 13 | 0 | –
Cc1nn(C)c(Nc2ccc(F)cc2F)c1-c1ccc(Cl)cc1 [compound 4] | 0 | 0 | 29 | 53 | 87 | 46 | 97 | 98 | 0 | –
Cc1nn(C)c(Nc2cc(F)cc(F)c2)c1-c1ccc(Cl)cc1 [compound 5] | 0 | 0 | 36 | 0 | 0 | 25 | 0 | 0 | 0 | –
Cc1nn(C)c(N(C)c2cc(F)cc(F)c2)c1-c1ccc(Cl)cc1 [compound 6] | 0 | 0 | 65 | 0 | 10 | 23 | 93 | 0 | 0 | –
Cc1nn(C)c(Nc2ccc(F)c(Cl)c2)c1-c1ccc(F)cc1Cl [compound 7] | 0 | 63 | 29 | 74 | 99 | 0 | 92 | 100 | 0 | –
Cc1nn(C)c(Nc2cccc(F)c2)c1-c1ccc(F)cc1Cl [compound 8] | 0 | 99 | 55 | 97 | 99 | 54 | 99 | 100 | 0 | –
Cc1nn(C)c(Nc2ccccc2F)c1-c1ccc(F)cc1Cl [compound 12] | 0 | 99 | – | 99 | 99 | 93 | 100 | 100 | 0 | –
Cc1nn(C)c(Nc2ccc(F)cc2F)c1-c1ccc(F)cc1Cl [compound 13] | 0 | 98 | – | 100 | 99 | 100 | 99 | 100 | 64 | –
COc1cc(Nc2c(-c3c(F)cccc3F)c(C)nn2C)cc(OC)c1 [compound 37] | 0 | 0 | 0 | 0 | 0 | 0 | 0 | 3 | 0 | –
COc1ccc(Nc2c(-c3ccc(F)cc3Cl)c(C)nn2C)cc1 [compound 288] | – | – | – | – | – | – | – | – | – | Test I rating (% disease control) [1, 5]: 74%; Test B rating (% disease control) (Botrytis cinerea; [6]): 99%; Test D rating (% disease control) (Phytophthora infestans; [6]): 0%; Test C rating (% disease control) (Alternaria solani; [6]): 52%; Test E rating (% disease control) (Rhizoctonia solani; [6]): 92%; Test A rating (% disease control) (Plasmopara viticola): 9%; Test J rating (% disease control) [2, 6]: 92%; Test F rating (% disease control) (Septoria nodorum; [7]): 0%
Cc1nn(C)c(N(C)c2c(F)cc(F)cc2F)c1-c1ccc(F)cc1Cl [compound 293] | – | – | – | – | – | – | – | – | – | Test I rating (% disease control) [1, 5]: 94%; Test B rating (% disease control) (Botrytis cinerea; [6]): 97%; Test D rating (% disease control) (Phytophthora infestans; [6]): 0%; Test C rating (% disease control) (Alternaria solani; [6]): 47%; Test E rating (% disease control) (Rhizoctonia solani; [6]): 99%; Test A rating (% disease control) (Plasmopara viticola): 0%; Test J rating (% disease control) [2, 6]: 99%; Test F rating (% disease control) (Septoria nodorum; [7]): 0%
CCN(c1c(F)cc(F)cc1F)c1c(-c2ccc(F)cc2Cl)c(C)nn1C [compound 294] | – | – | – | – | – | – | – | – | – | Test I rating (% disease control) [1, 5]: 0%; Test B rating (% disease control) (Botrytis cinerea; [6]): 98%; Test D rating (% disease control) (Phytophthora infestans; [6]): 0%; Test C rating (% disease control) (Alternaria solani; [6]): 0%; Test E rating (% disease control) (Rhizoctonia solani; [6]): 80%; Test A rating (% disease control) (Plasmopara viticola): 0%; Test J rating (% disease control) [2, 6]: 84%; Test F rating (% disease control) (Septoria nodorum; [7]): 0%

— patent US10448639B2, “Fungicidal pyrazoles” (FMC CORPORATION, priority 2009, dated 2019)
